Drawing on ChEMBL document CHEMBL4610086, “N-Acylethanolamine Acid Amidase (NAAA): Structure, Function, and Inhibition” (J Med Chem, 2020), this text covers IC50 and Kp for four compounds.

For data set [1], the target named is T1, N-acylethanolamine-hydrolyzing acid amidase (Homo sapiens, UniProt Q02083).
T1 sequence (Q02083 whole entry): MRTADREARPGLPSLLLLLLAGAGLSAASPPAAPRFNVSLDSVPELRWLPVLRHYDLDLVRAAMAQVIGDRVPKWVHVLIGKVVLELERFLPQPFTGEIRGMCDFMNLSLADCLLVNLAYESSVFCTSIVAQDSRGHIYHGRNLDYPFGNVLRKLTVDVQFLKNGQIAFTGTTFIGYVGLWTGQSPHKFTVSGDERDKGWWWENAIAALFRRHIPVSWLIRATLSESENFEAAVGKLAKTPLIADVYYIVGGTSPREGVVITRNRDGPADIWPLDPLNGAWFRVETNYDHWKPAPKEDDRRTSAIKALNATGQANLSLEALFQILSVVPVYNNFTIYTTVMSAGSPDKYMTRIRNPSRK
The experiment in a line: Inhibition of NAAA (unknown origin).

Data set [2] in a line: Blood brain barrier permeability in human. In kind it is ADME. The conditions noted are these: read-out: BPR.
Data set [3] concerns the target T1, N-acylethanolamine-hydrolyzing acid amidase. The experiment in a line: Inhibition of human NAAA.
For data set [4] the target is unchanged. The experiment in a line: Inhibition of human NAAA expressed in HEK293 cell membranes using [3H]-N-palmitoylethanolamine as substrate after 30 mins by liquid scintillation counting assay.

A value given as a limit tells only on which side of the number the result lay.

A word on the IC50: it is the concentration that gives 50% inhibition. A lower IC50 goes with greater potency. For `O=C(CCc1ccc(-c2ccccc2)cc1)N1CCCC1`, the IC50 in data set [1] amounted to 3.1 µM.
On to `CCS(=O)(=O)c1ccccc1C(=O)N1CCN(c2nc3ccc(F)cc3s2)C[C@@H]1C`, for which the Kp in data set [2] came to 0.2.
As to `CCCCc1ccc(O[C@@H]2C[C@H]3CC[C@@H](C2)N3CS(=O)(=O)c2c(C)n[nH]c2C)cc1`, the IC50 in data set [3] was found to be 0.023 µM.
With `CCCCCCCCCCCCCCCC(=O)OC1CCCC1` [CYCLOPENTYL PALMITATE], the IC50 in data set [4] is above 30 µM.
